The results in this text go back to patent US6294526A, “Use of flavone derivatives for induction of β-lactam-sensitivity of MRSA” (priority 1998, dated 2001).

Each structure is given as a SMILES string. ≈ marks a conversion by molar mass, not a printed value. Where two headings read alike, the source gives them in different places.

The test system of assay [1] is MSSA. In words: antibacterial activity (MIC) by agar plate dilution method, MSSA strains. The conditions noted are these: Staphylococcus aureus, 20 h. It counts as cell-based, Methicillin-sensitive Staphylooccus aureus. The procedure: (§1) The screening of the present invention may be carried out according to the agar plate dilution method designated by the Japan Society of Chemotherapy (Chemotherapy 29(1), 76-79 (1981)). Mueller-Hinton agar base semi-synthetic medium may be used for a plate culture medium for a sensitivity test together with an inoculating bacteria solution which may be prepared by culturing bacteria to be tested at 37° C. for 20 hours diluted with 8.5% by isotonic sodium chloride solution to 10^6 CFU/ml. Diluted β-lactam solutions are prepared by two times serial dilution. 1 ml of the diluted β-lactam solution and 1 ml of a predetermined concentration of a sample to be tested are added to 8 ml of the plate culture medium for a sensitivity test. To the resultant plate culture medium for sensitivity test, the bacteria are inoculated using a microplanter (SAKUMASEISAKUSYO Co.), cultured for 20 hours at 37° C. followed by assessing for a minimum inhibition concentration (MIC).
(§2) (A) Antibacterial activities of ether extract from Scutellaria barbata, SB-1 (isolated from Scutellaria barbata), apigenin (authentic sample) and luteolin (authentic sample) were shown in Table 1.
(§3) Flavones were dissolved in methanol and the others were dissolved in 0.1 N NaOH. A method for determination of antibacterial activity is, as described above, an agar plate dilution method designated by the Japan Society of Chemotherapy (Chemotherapy 29(1), 76-79 (1981)) to determine MIC value. MIC80 is a concentration at which a strain is prohibited to proliferate by 80% and MIC50 is a concentration at which a strain is prohibited to proliferate by 50%.

Assay [2] has as its system MRSA. Briefly: antibacterial activity (MIC) by agar plate dilution method, MRSA strains. The format is cell-based, methicillin-resistant Staphylococcus aureus. The conditions noted are these: Staphylococcus aureus, 20 h. The procedure: as §1, §2, §3
In assay [3] the test system is MRSA and MSSA. Briefly: antibacterial activity (MIC) by agar plate dilution method, MRSA and MSSA strains together. It counts as cell-based, Staphylococcus aureus. The conditions noted are these: for antibacterial activity (in words): Table 2; for MIC: Staphylococcus aureus, 20 h, read-out: MIC values (text summary of Table 2). As to the method:
as §1, with “(MIC). […]” for “(MIC).”
Antibacterial activity is determined for flavones including flavone, flavonol, flavanone, isoflavone, catechin and calchone, as follows:
as §3

Setting [4] is: MSSA (7 strains), read-out: MIC50.
The mark [5] stands for this setting: MRSA (20 strains), read-out: MIC50.

Take `O=c1cc(-c2ccc(O)c(O)c2)oc2cc(O)cc(O)c12` [Luteolin, luteolin]: the MIC50 in assay [1] (MSSA) and in assay [2] (MRSA) was 125 µg/mL (≈ 437 µM) each time. Besides, the MIC in assay [1] (MSSA, MSSA (7 strains), range over strains) was 62.5 to 125 µg/mL (≈ 218 to 437 µM); in assay [1] (MSSA, MSSA strain No. 21) it was 125 µg/mL (≈ 437 µM); in assay [1] (MSSA, MSSA strain No. 22), 125 µg/mL (≈ 437 µM); in assay [1] (MSSA, MSSA strain No. 23), 62.5 µg/mL (≈ 218 µM); in assay [1] (MSSA, MSSA strain No. 24) it was 62.5 µg/mL (≈ 218 µM); in assay [1] (MSSA, MSSA strain No. 25), 125 µg/mL (≈ 437 µM). For the same molecule, the MIC in assay [1] (MSSA, MSSA strain No. 26) was 125 µg/mL (≈ 437 µM); in assay [1] (MSSA, MSSA strain No. 27) it was 62.5 µg/mL (≈ 218 µM); in assay [2] (MRSA, MRSA (20 strains), range over strains) it was 62.5 to 125 µg/mL (≈ 218 to 437 µM); in assay [2] (MRSA, MRSA strain No. 1), 125 µg/mL (≈ 437 µM); in assay [2] (MRSA, MRSA strain No. 2) it was 125 µg/mL (≈ 437 µM); in assay [2] (MRSA, MRSA strain No. 3) it was 125 µg/mL (≈ 437 µM). Besides, the MIC in assay [2] (MRSA, MRSA strain No. 4) stood at 125 µg/mL (≈ 437 µM); in assay [2] (MRSA, MRSA strain No. 5), 62.5 µg/mL (≈ 218 µM); in assay [2] (MRSA, MRSA strain No. 6) it was 62.5 µg/mL (≈ 218 µM); in assay [2] (MRSA, MRSA strain No. 7) it was 62.5 µg/mL (≈ 218 µM); in assay [2] (MRSA, MRSA strain No. 8), 62.5 µg/mL (≈ 218 µM); in assay [2] (MRSA, MRSA strain No. 9), 62.5 µg/mL (≈ 218 µM). Besides, the MIC in assay [2] (MRSA, MRSA strain No. 10) is 62.5 µg/mL (≈ 218 µM); in assay [2] (MRSA, MRSA strain No. 11) it was 125 µg/mL (≈ 437 µM); in assay [2] (MRSA, MRSA strain No. 12) it was 125 µg/mL (≈ 437 µM); in assay [2] (MRSA, MRSA strain No. 13), 62.5 µg/mL (≈ 218 µM); in assay [2] (MRSA, MRSA strain No. 14) it was 125 µg/mL (≈ 437 µM); in assay [2] (MRSA, MRSA strain No. 15) it was 125 µg/mL (≈ 437 µM). In addition, the MIC is 125 µg/mL (≈ 437 µM) in assay [2] (MRSA, MRSA strain No. 16); 125 µg/mL (≈ 437 µM) in assay [2] (MRSA, MRSA strain No. 17); 125 µg/mL (≈ 437 µM) in assay [2] (MRSA, MRSA strain No. 18); 125 µg/mL (≈ 437 µM) in assay [2] (MRSA, MRSA strain No. 19); 62.5 µg/mL (≈ 218 µM) in assay [2] (MRSA, MRSA strain No. 20). The “antibacterial activity (in words)” value in assay [3] (MRSA and MSSA) is recorded as “showed antibacterial activity”.

As to `O=C(CCc1ccc(O)cc1)c1c(O)cc(O)cc1O` [Phloretin, phloretin], the figures for the MIC50 in assay [1] (setting [4]) and in assay [2] (setting [5]) were 125 µg/mL (≈ 456 µM) and 250 µg/mL (≈ 912 µM), respectively. Further, the MIC in assay [1] (MSSA, MSSA (7 strains), range over strains, read-out: MIC) was 125 to 250 µg/mL (≈ 456 to 912 µM); in assay [3] (MRSA and MSSA, "in each case") it was 250 µg/mL (≈ 912 µM). Besides, the “antibacterial activity (in words)” value in assay [3] (MRSA and MSSA) is “showed activity”; in assay [3] (MRSA and MSSA, listed as phioretin) it was “showed antibacterial activity”.

Turning to `O=c1c(O)c(-c2ccc(O)c(O)c2)oc2cc(O)cc(O)c12` [Quercetin, quercetin], the MIC50 in assay [1] (setting [4]) and in assay [2] (MRSA) was 250 µg/mL (≈ 827 µM) each time. In addition, in assay [3] (MRSA and MSSA), the “antibacterial activity (in words)” value is recorded as “showed antibacterial activity”. For the same molecule, in assay [3], the MIC was 250 µg/mL (≈ 827 µM).

In the case of `COc1cc(O)c2c(c1)OC(c1ccc(O)cc1)CC2=O` (stereo not shown) [Sakranetin, sakranetin], the MIC50 was > 250 µg/mL in assay [1] (setting [4]) and 125 µg/mL (≈ 437 µM) in assay [2] (setting [5]). For the same molecule, the “antibacterial activity (in words)” value in assay [3] (MRSA and MSSA) is recorded as “showed antibacterial activity”. Besides, the MIC in assay [3] (MRSA and MSSA, "in each case") came out at 250 µg/mL (≈ 873 µM).

For orientation: MIC50 means an inhibitory concentration at the 50% level, which refers to growth in some studies and to a panel of isolates in others. The MIC is the lowest concentration found to suppress growth.
